{"source": "patent US20240003908A1", "about": "“POLYOL BIOMARKERS FOR CONGENITAL DISORDERS OF GLYCOSYLATION” (Mayo Foundation for Medical Education and Research, priority 2020, published 2024)", "system": "child with PMM2-CDG", "experiment": "Single patient (P1) study: clinical efficacy (ICARS, NPCRS, BMI, weight)", "format": "in vivo, human", "details": "same patient, five months acetazolamide before epalrestat; from 66", "experimental": "Prospectively collected clinical and laboratory data in 24 PMM2-CDG patients: The genetic, laboratory, metabolic, and clinical data of 24 PMM2-CDG patients were evaluated (TABLES 2A and 2B). Disease severity was assessed by Nijmegen Pediatric CDG Rating Scale (NPCRS), (most severe=82; mild (0-14), moderate (15-25), severe (>26)) (Achouitar et al., J Inherit Metab Dis 34:923-927, 2011; and Martinez-Monseny et al., Ann Neurol 85:740-751, 2019). Patient P1 and twin patients P4 and P5 also were discussed elsewhere (Qian et al., JIMD Rep 56:27-33, 2020; and Jaeken et al., Ped Res 14:179, 1980). P1, enrolled in a single IND clinical trial, was additionally evaluated by the International cooperative ataxia rating scale (ICARS) (Trouillas et al., J Neurol Sci 145:205-211, 1997), which assesses limb ataxia, dysarthria, posture and gait disturbances, and oculomotor disorders (0=normal; 100=most severe). Urinary polyols including sorbitol and mannitol were analyzed by GC/MS in 23 out of the 24 PMM2-CDG patients (patient P6 was deceased). In addition, functional in vitro data was collected from the fibroblasts of P1-P6, P8, P10, P17, P19, and P24.\nStudy design: An open label, single patient (P1) compassionate use study was designed to assess the safety and tolerability of oral epalrestat therapy in a child with PMM2-CDG.\nPatient assessment: Prior to the first dose of epalrestat and at 1, 2, 3, 6, 8, 9, 12 months during treatment, concomitant medications and vital signs were recorded and the patient was evaluated using the NPCRS. In addition, blood was drawn for serum chemistry, hematology, and plasma levels of epalrestat. Urine was collected for polyol measurement at baseline and twice over the course of 12 months of therapy.\nDrug administration: Epalrestat was administered orally, 3 times per day (TID) before meals in a divided dose (0.8 mg/kg/day; 5 mg TID) of epalrestat (Ono Pharmaceuticals, Osaka, Japan) starting on Day 1 of the study.\nSafety and efficacy: Safety measures included vital signs, change in CBC, liver function (INR, bilirubin, transaminases, and albumin) in blood, change in liver elastography, and following the pharmacokinetic profile of epalrestat. The efficacy of epalrestat was studied by clinical follow up (physical exam, NPCRS, ICARS), standard laboratory tests, and transferrin glycoform analysis by mass spectrometry.", "data": [{"smiles": "CC(=O)Nc1nnc(S(N)(=O)=O)s1", "note": "[acetazolamide]", "values": [{"measurement": "ICARS score", "value": 56}]}]}
